Data on 4 molecules can be found in patent US7462618B2, “Treatment of inflammatory autoimmune diseases with alpha-adrenergic antagonists and beta-adrenergic agonists” (Sun Health Research Institute, priority 2003, dated 2008).

Experiment [1] concerns Lewis rats with AA. Kind of experiment: Adjuvant-induced arthritis, dorsoplantar footpad width (Example 1). To be noted: single drug i.p. twice a day from day 12; by day 28 post-adjuvant injection. In kind it is in vivo, rat. The procedure:
Lewis rats with AA, a model for RA, were used to examine the combined action of the β2-adrenergic receptor agonist terbutaline and the non-specific α-AR antagonist phentolamine. AA was induced in adult male Lewis rats (200-225 gm) by a base of the tail intradermal injection of complete Freund's adjuvant (CFA). The CFA (0.03 g dried and heat killed Mycobacterium butyricum (Difco, Detroit, Mich.) emulsified in 10 ml sterile mineral oil) was prepared by grinding the M. butyricum with a mortar and pestle until the bacterial cell wall turned from a light beige to an eggshell white powder. The mineral oil was then slowly worked into the bacterial cell wall using the mortar and pestle. The suspension was treated with a sonic dismembraner for 5 minutes to ensure that the bacterial cell wall remained suspended in the mineral oil for animal injections. While there was variability in the severity of disease development between the preparations of adjuvant, there was very little variability within individual batches. […] The inflammatory response in the arthritic rats was assessed by routine methods previously described. Dorsoplantar width of the hind feet were measured using a Mitutoyo Corporation dial thickness gauge, beginning the day of CFA-immunization and continued approximately every other day until sacrifice. […]

Experiment [2] has as its system Lewis rats with AA. Kind of experiment: Adjuvant-induced arthritis, radiographic scores of hind limbs (Example 1). In kind it is in vivo, rat. To be noted: i.p. twice a day from day 12; day 28. The method, then:
Lewis rats with AA, a model for RA, were used to examine the combined action of the β2-adrenergic receptor agonist terbutaline and the non-specific α-AR antagonist phentolamine. AA was induced in adult male Lewis rats (200-225 gm) by a base of the tail intradermal injection of complete Freund's adjuvant (CFA). The CFA (0.03 g dried and heat killed Mycobacterium butyricum (Difco, Detroit, Mich.) emulsified in 10 ml sterile mineral oil) was prepared by grinding the M. butyricum with a mortar and pestle until the bacterial cell wall turned from a light beige to an eggshell white powder. The mineral oil was then slowly worked into the bacterial cell wall using the mortar and pestle. The suspension was treated with a sonic dismembraner for 5 minutes to ensure that the bacterial cell wall remained suspended in the mineral oil for animal injections. While there was variability in the severity of disease development between the preparations of adjuvant, there was very little variability within individual batches. All animals in each experiment were challenged with the same preparation of adjuvant and 100% of the animals developed arthritis. Phentolamine (an α-adrenergic receptor antagonist) and terbutaline (a β2-adrenergic receptor agonist) were obtained from Sigma Chemical Company (St. Louis, Mo.). Both adrenergic drugs were dissolved in 0.01 mM ascorbic acid in 0.9% sterile, endotoxin-free saline. Adrenergic therapy with phentolamine and/or terbutaline or vehicle was started on day 12 post-immunization, the time of disease onset, and continued until sacrifice. The dose of phentolamine (500 μg/Kg/day) and/or terbutaline (600 μg/day) were administered by intraperitoneal (i.p.) injections twice a day in a total volume of 500 μl per injection. […] X-rays were evaluated using a grading scale modified from Ackerman and coworkers. […] The radiographs were scored for each of the following characteristics: (1) swelling as indicated by the width of soft tissue shadows and alterations in the normal configuration of the soft tissue planes; (2) osteoporosis as measured by bone density (recognized by increases in radiolucency relative to uninvolved adjacent bone); (3) cartilage loss shown by narrowing of the joint spaces; and (4) heterotopic ossification defined as proliferation of new bone tissue (fine ossified line paralleling normal bone but not contiguous with calcified area of the bone itself). The radiographic scores for each category were added for both hind limbs giving a maximum score of 40, and the individual scores for each animal were then averaged within the treatment groups and expressed as a mean±standard error of the mean (SEM), and subjected to Kruskal-Wallis statistical analysis (non-parametric statistic equivalent to an ANOVA; p<0.05) followed by Dunn post-hoc testing. […]

The subject of the next experiment is IL-10/TNFα. Kind of experiment: Ex vivo IL-10 and TNFα production by cells of treated AA rats (sandwich ELISA). Type of experiment: in vivo, rat. To be noted: for Ratio of IL-10/TNFα: cells cultured 24 h, mean ± SEM, N = 6. The text has this: To determine if the adrenergic drug treatments were able to modify cytokine patterns in the secondary lymphoid organs and systemically in the blood, pro- and anti-inflammatory cytokine profiles were obtained ex vivo from cells harvested from the draining (inguinal and poplitial) lymph nodes, spleen and the PBMC from the animals described above. All tissue culture media and supplements were obtained from Gibco BRL (Rockville, Md.) unless otherwise stated. OPTIA sandwich ELISA kits for IL-10 and TNFα were purchased from Pharmingen (San Diego, Calif.). The spleen and lymph nodes were aseptically removed from the animal and placed into Hank's balanced salt solution (HBSS). The spleens were placed in a stomacher bag and homogenized for 30 seconds. […] The collected cells were centrifuged and re-suspended in 5 ml of a NH4Cl hypotonic buffer for 3 min to lyse the red blood cells. The cells were washed 2× with 10 ml HBSS, centrifuged and re-suspended into complete RPMI 1640 media supplemented with 5% fetal calf serum and 1% antibiotic/antimycotic. The draining (inguinal and poplitial) lymph nodes were placed into sterile etri dishes containing 5 ml HBSS. […] The homogenates then were passed through a nylon mesh, centrifuged and re-suspended in 5 ml HBSS. The cells then were centrifuged and re-suspended into complete RPMI 1640 media supplemented with 5% fetal calf serum and 1% antibiotic/antimycotic. PBMCs: Blood was collected using cardiac puncture into a 7 ml lithium heparin vaccutainer tubes. The tubes were inverted 7 times and then spun down at 1000 rpm for 15 minutes at 10° C. The buffy coat was removed using a 2 ml pipette and placed into a sterile 15 ml tube containing 10 ml of a NH4Cl hypotonic buffer for 3 min to lyse the red blood cells. The peripheral blood mononuclear cells (PBMC) were centrifuged and re-suspended in 10 ml HBSS. The PBMC were washed three more times with 10 ml HBSS, centrifuged and re-suspended into complete RPMI 1640 media supplemented with 5% fetal calf serum and 1% antibiotic/antimycotic. The prepared cells were counted using a hemocytometer, then brought to the concentration of 2×10^6 cells/ml. Two ml of the cell preparation were plated into 24 well plates (Falcon, Oxnard, Calif.), and in placed in an incubator 7% CO2, 37° C., for 24 h. After 24 h the culture supernatants were harvested and placed in the freezer at -70° C. until ELISA assay. Optia kits for the detection of IL-10 and TNFα were obtained from BD Pharmingen (Los Angeles, Calif.) and sandwich ELISAs were used to measure the amount cytokine released into the culture media. In brief: High binding microtiter 96-well plates were pre-coated with 100 μl of capture antibody in coating buffer (0.1 M carbonate buffer, pH 9.5) for IL-2, IL-4, IFNγ and TNFα and (0.2 M phosphate buffer, pH 6.5) for IL-10. The plates were sealed with plate film (Denville Scientific, South Plainfield, N.J.) and placed at 4° C. overnight. The plates were allowed to come to room temperature and washed with 0.1 M phosphate buffered saline-0.5% Tween 20 (PBS-Tw20). The non-specific binding was blocked using PBS-Tw20 and 1% bovine serum albumin. Standard/sample was then added to each well, the plates were sealed and incubated overnight at 4° C. The plate was washed three times with PBS-Tw20 and biotinylated secondary detection antibody and streptavidin/avidin enzyme conjugate (diluted in PBS-1% bovine serum albumin) were added to the wells and the plates incubated for 1.5 h. The plates were then washed and developed with (TMB) reagent (Pharmingen, San Diego, Calif.) for 30 minutes. After color development the plates were stopped with addition of IN sulfuric acid. Unknown sample cytokine levels were determined through comparison with a standard curve present on each plate using an ELISA reader ([…]: Bio Tek Instruments Incorporated, Winooski, Vt.). […]
Background: ELISA stands for enzyme-linked immunosorbent assay.

The subject of another experiment is Th1 cell clones. As to conditions: cited from earlier work.
Experiment [3] concerns Th cells cultured with B cell clones. As to conditions: applied to Th cells before activation, cited from earlier work.
Another experiment has as its system Th2 cell clones. As to conditions: treated before activation; cited from earlier work.
The subject of experiment [4] is animals with fully expressed AA. To be noted: cited from earlier work.
In experiment [5] the test system is collagen-induced arthritis. As to conditions: in vivo; cited from earlier work.

In the case of `Cc1ccc(N(CC2=NCCN2)c2cccc(O)c2)cc1` [Phentolamine], the “Soft tissue swelling (dorsoplantar footpad width) compared with vehicle-treated AA rats” value in the experiment with Lewis rats with AA [1] is “significantly decreased”. Further, in the experiment with Lewis rats with AA [2], the “Decrease in bone loss compared to vehicle-treated AA rats” value is reported as 51%. In the experiment with Lewis rats with AA [2], the “Radiographic scores compared with vehicle controls” value was “significantly reduced”. Also, the results for the “Ratio of IL-10/TNFα” value in the experiment on IL-10/TNFα (DLN), in the experiment on IL-10/TNFα (PBL) and in the experiment on IL-10/TNFα (SPL) were 1.0960 ± 0.1961, 0.8067 ± 0.1762 and 3.3350 ± 0.6716, respectively. In addition, the “Ratio of anti- to pro-inflammatory cytokine production by macrophage cells” value in the experiment on IL-10/TNFα (secondary lymphoid organs and peripheral blood) was “increase”.

Regarding `CC(C)(C)NCC(O)c1cc(O)cc(O)c1` (centres unmarked) [Terbutaline, terbutaline], the “IL-2-dependent T cell proliferation” value with Th1 cell clones was “reduced”. The “IL-2 and IFNγ production by Th1 cell clones” value in the experiment with Th1 cell clones (treated before activation with antigen-specific B cells or anti-CD3 antibodies) is on record as “inhibits”. Besides, the “Soft tissue swelling (dorsoplantar footpad width) compared with vehicle-treated AA rats” value with Lewis rats with AA [1] is “significantly decreased”. In addition, the “Decrease in bone loss compared to vehicle-treated AA rats” value in the experiment with Lewis rats with AA [2] is given as roughly 50%. In addition, the “Radiographic scores compared with vehicle controls” value in the experiment with Lewis rats with AA [2] was “significantly reduced”. For the same molecule, the IgG2a production result in experiment [3] (blockable by nadolol or IFNγ) is “inhibited”. In experiment [3], the IgG1 production result is “not”. Further, the “IL-4 or IL-10 production by Th2 cell clones” value in the experiment on Th2 cell clones is given as “does not affect”. The results for the “Ratio of IL-10/TNFα” value in the experiment with IL-10/TNFα (DLN), with IL-10/TNFα (PBL) and in the experiment on IL-10/TNFα (SPL) were 1.5060 ± 0.1642, 0.4382 ± 0.0471 and 2.1370 ± 0.8285, respectively.

With `O=P(O)(O)C(Cl)(Cl)P(=O)(O)O` [clodronate], the “Joint inflammation and destruction” value in experiment [4] is “significantly reduced”.

For `CC(C)(C)NCC(O)c1ccc(O)c(CO)c1` (centres unmarked) [salbutamol], the “Severity of collagen-induced arthritis” value in experiment [5] is recorded as “reduces the severity”.
